# Measured values as given in patent US20170191031A1, “SYSTEMS AND METHODS FOR STEM CELL DIFFERENTIATION” (University of Oslo, priority 2014, published 2017).
# Non-standard residues stand in square brackets, D forms with d. Residues, ends and D or L forms follow the SMILES beside them. *: point of attachment. Hexanoyl = CCCCCC(=O)*; Ahx = NCCCCCC(=O)O
# What was measured:
# Type in all cases: cell-based, human
# hESC line H1 [1] = experiment: Phase I definitive endoderm differentiation, FOXA2/SOX17 immunofluorescence and cell counting; conditions: 24 hour treatment, Phase I endpoint 48 hours, CHIR99021 3 μM, BIO 1 μM, Wnt3a 50 ng/ml
# Excerpt: (§1) The scale bars represent 100 μm.
# as §1
# [2] = tested on: hESC line H1 and hiPSC line Detroit; experiment: Definitive endoderm differentiation in 3D alginate scaffold, TaqMan; conditions: cells encapsulated in alginate scaffold; Phase I conditions RPMI-B27+Chir
# Protocol: Differentiation of the hESC line H1 and the hiPSC line Detroit was performed in a 3D environment by encapsulating the cells in an alginate scaffold. The cells were cultured using the same conditions as in 2D with the exception that the spheres were cultured for 6 days in human ES media, then transferred to Phase I conditions (RPMI-B27+Chir). All pluripotency marks were maintained as assessed by TaqMan, to the point prior to transition to Phase I. The ability of hPSCs to be directed to definitive endoderm (DE) in 3D was assessed via the DE marks SOX17 and FOXA2. […] Further differentiation through phases II and III is performed as described above.
# hESC line H1 [3] = experiment: Phase I gene expression by TaqMan RT-qPCR
# Protocol: Phase I of differentiation consists of a 24 hour treatment with RPMI-B27±insulin (RPMI 1640 GlutaMAX+B27 supplement, both from Life Technologies) plus 3-4 μM CHIR99021 (Stemgent), followed by a 24 hour treatment with RPMI-B27 alone. Phase II consists of 5 days of treatment with Knockout DMEM containing 20% Knockout Serum Replacement, 2 mM GlutaMAX, 100 μM 2-mercaptoethanol, 1×MEM non-essential amino acids (Life Technologies) and 1% DMSO (Sigma-Aldrich). Phase III consists of 10 days of treatment with Leibovitz L-15 media containing 8.3% tryptose phosphate broth, 10 μM hydrocortisone 21-hemisuccinate, 50 μg/ml sodium-L-ascorbate, 100 nM dexamethasone (all from Sigma-Aldrich), 0.58% insulin-transferrin-selenium (ITS), 2 mM GlutaMAX (all from Life Technologies), 8.3% foetal bovine serum (Lonza), and 100 nM Dihexa (kind gift from Prof. Joseph Harding, Washington State University). During Phases II and III cells are fed every 48 hours. […]
# RNA was isolated from cells using TRIzol according to manufacturer's instructions and quantified using a spectrophotometer (NanoDrop). cDNA was prepared using the High Capacity Reverse Transcription kit and a thermal cycler (both from Life Technologies). […] Expression levels were quantified relative to ACTB and normalised to undifferentiated pluripotent control samples or definitive endoderm cells as specified. […]
# [4] = tested on: hESC lines 207 and 360, hiPSC lines Detroit; experiment: Phase I definitive endoderm differentiation of other pluripotent lines
# Protocol: Cells were seeded onto Matrigel coated 12 well plates in E8 medium at a 1:3-1:4 split ratio, and allowed to adhere for 24 hours at 37° C./5% CO2. It should be noted the optimal cell density for each line needs to be established. The cells were washed with phosphate buffered saline (PBS) before being treated with differentiation media. The differentiation protocol utilises similar base media to a well-established differentiation protocol (Hay et al., Proc Natl Acad Sci USA 105, 12301-12306 2008), with replacement of all growth factors with small molecules, and minor adjustments in timing. The protocol incorporates several stages (FIG. 1) utilising different small molecules.
# (§2) Phase I of differentiation consists of a 24 hour treatment with RPMI-B27±insulin (RPMI 1640 GlutaMAX+B27 supplement, both from Life Technologies) plus 3-4 μM CHIR99021 (Stemgent), followed by a 24 hour treatment with RPMI-B27 alone. Phase II consists of 5 days of treatment with Knockout DMEM containing 20% Knockout Serum Replacement, 2 mM GlutaMAX, 100 μM 2-mercaptoethanol, 1×MEM non-essential amino acids (Life Technologies) and 1% DMSO (Sigma-Aldrich). Phase III consists of 10 days of treatment with Leibovitz L-15 media containing 8.3% tryptose phosphate broth, 10 μM hydrocortisone 21-hemisuccinate, 50 μg/ml sodium-L-ascorbate, 100 nM dexamethasone (all from Sigma-Aldrich), 0.58% insulin-transferrin-selenium (ITS), 2 mM GlutaMAX (all from Life Technologies), 8.3% foetal bovine serum (Lonza), and 100 nM Dihexa (kind gift from Prof. Joseph Harding, Washington State University). During Phases II and III cells are fed every 48 hours. Cells were photographed during differentiation using a Zeiss phase contrast microscope and ZEN software. The scale bars represent 100 μm.
# Cells were washed with PBS before being fixed with a 10 minute treatment of ice cold methanol. Fixed cells were washed in 0.1% PBS-T: PBS containing 0.1% Tween 20 (Sigma-Aldrich). […] Cells were imaged using a Zeiss Observer Fluorescence Microscope and Axiovision imaging software. […]
# (§3) Immuno-stained cells were quantified for expression of stage specific markers by manual counting. For Phase I, FOXA2 and SOX17 were counted separately. For Phase II, cells were scored positively if the nucleus was stained for HNF4A and the cytoplasm was stained for AFP. For Phase III, cells were scored positively if the nucleus was HNF4A positive and the cytoplasm was ALB positive. Phase III cells were also quantified for AFP and A1AT staining and were counted as positive if the cytoplasm was stained. […] A minimum of 10 fields of view were quantified, with a minimum of 250 cells counted per field of view. Percentages are presented as the average of all field quantifications, plus or minus the standard deviation across all fields.
# hepatic progenitors = experiment: Phase III hepatocyte maturation, optimisation of concentrations; conditions: established in HepatoZYME medium; morphology and function
# Protocol: as §2, with “Phase III consists of 10 days of treatment with Leibovitz L-15 media containing 8.3% tryptose” left out
# [5] = tested on: hESC line 207 and hiPSC Detroit RA, RB, RC derived definitive endoderm; experiment: Phase II hepatic specification of other pluripotent lines; conditions: all lines tested; Phase II conditions, 5 days
# Protocol: Phase I of differentiation consists of a 24 hour treatment with RPMI-B27±insulin (RPMI 1640 GlutaMAX+B27 supplement, both from Life Technologies) plus 3-4 μM CHIR99021 (Stemgent), followed by a 24 hour treatment with RPMI-B27 alone. Phase II consists of 5 days of treatment with Knockout DMEM containing 20% Knockout Serum Replacement, 2 mM GlutaMAX, 100 μM 2-mercaptoethanol, 1×MEM non-essential amino acids (Life Technologies) and 1% DMSO (Sigma-Aldrich). […]
# Cells were washed with PBS before being fixed with a 10 minute treatment of ice cold methanol. […] Cells were imaged using a Zeiss Observer Fluorescence Microscope and Axiovision imaging software. […]
# as §3
# CYP1A2 = experiment: Cytochrome P450 induction, P450-Glo CYP1A2; conditions: 100 μM, 72 hours
# Protocol: Induction of cytochrome P450 activity was assessed in both small molecule and growth factor derived HLCs. CYP1A2 activity was detected using the P450-Glo CYP1A2 Induction/Inhibition Assay kit (Promega, Cat. no. V8422). […] Assays were performed according to the manufacturer's instructions for non-lytic P450-Glo assays using cultured cells in monolayers. […] Briefly, cells were cultured to day 20 of the differentiation protocol and Rifampicin or Omeprazole was added to L-15 culture medium, which was formulated as described above, but without dexamethasone or hydrocortisone. […] Briefly, for CYP1 A2 the substrate Luciferin-1A2 was diluted to 6 μM in PBS (calcium/magnesium free) containing 3 mM freshly prepared salicylamide (Sigma). The Luciferin substrate was added to each well (1 ml per well of a 6 well plate), and incubated for 60 minutes followed by detection. […] Basal activity was assessed as above with the omission of inducers. In addition, no cell media controls were included. Finally as a negative control, the pluripotent hESC line H1 was assayed for CYP activity as described above. All data was normalised to total protein content in each well. Data is presented as the mean values of 6 independent experiments; error bars represent standard deviation.
# H1 smHLCs = experiment: Uptake of indocyanine green; conditions: 1 mg/ml, 1 hour; phase microscopy
# Protocol: In order to assess glycogen storage, differentiated cells were fixed and treated with a periodic acid-Schiff staining kit (Sigma-Aldrich) in accordance with manufacturer's instructions and imaged using a Zeiss phase contrast microscope and ZEN software. The scale bars represent 100 μm. The cellular uptake of indocyanine green was assessed. Briefly, ICG (Sigma-Aldrich) was reconstituted in water and used at a final concentration of 1 mg/ml. Cells were incubated in media supplemented with ICG for 1 hour, the cells were then washed with PBS and imaged using a Zeiss phase contrast microscope and ZEN software.
# [6] = all lines (207, Detroit RA, RB, RC), 4 μM in RPMI-B27 minus insulin, 48 hours
compound,measurement,setting,value
"O=C1Nc2cc(Br)ccc2/C1=C1/Nc2ccccc2/C1=N\O [BIO, (2′Z,3′E)-6-Bromoindirubin-3′-oxime]",Expression of DE proteins FOXA2 and SOX17 by immunofluorescence,hESC line H1 [1],produce FOXA2/SOX17 positive cells
Cc1c[nH]c(-c2cnc(NCCNc3ccc(C#N)cn3)nc2-c2ccc(Cl)cc2Cl)n1 [CHIR99021],Induction of SOX17 and FOXA2 in 3D over 2D differentiation,[2],an order of magnitude induction
same,Time to rapid upregulation of NODAL after exposure,hESC line H1 [3]; 3 μM,≤ 4 h
same,SOX7 levels (primitive endoderm marker) during Phase I,"hESC line H1 [3]; 3 μM 24 hour, then 24 hours RPMI-B27",No upregulation
same,Expression of DE proteins FOXA2 and SOX17 by immunofluorescence,hESC line H1 [1],equivalent co-expression
same,Phase I differentiation under H1 conditions,"[4]; 3 μM, 24 hour treatment, then 24 hours RPMI-B27",very inefficient
same,FOXA2 positive cells at Phase I endpoint,[4]; [6],81%-84%
same,SOX17 positive cells at Phase I endpoint,[4]; [6],79%-82%
same,Optimal concentration for Phase I differentiation,"[4]; titration 1-10 μM in RPMI-B27±insulin, optimum in RPMI-B27 minus insulin",4 µM
"C[C@@H]1C[C@H]2[C@@H]3CCC4=CC(=O)C=C[C@]4(C)[C@@]3(F)[C@@H](O)C[C@]2(C)[C@@]1(O)C(=O)CO [DEX, dexamethasone]",Optimal concentration for hepatic maturation,hepatic progenitors,100 nM
"C[S+](C)[O-] [DMSO, Dimethylsulfoxide]",Efficiency based on AFP/HNF4A co-expression,[5],86%-89%
"CCCCCC(=O)N[C@@H](Cc1ccc(O)cc1)C(=O)N[C@H](C(=O)NCCCCCC(N)=O)[C@@H](C)CC [Dihexa, N-hexanoic-Tyr, Ile-(6) aminohexanoic amide] (Hexanoyl-Tyr-Ile-[Ahx]-NH2)",Optimal concentration for hepatic maturation,hepatic progenitors,100 nM
COc1ccc2[nH]c([S+]([O-])Cc3ncc(C)c(OC)c3C)nc2c1 (stereo not drawn) [Omeprazole],Induction of CYP1A2 activity in smHLCs,CYP1A2,significant induction
CC1(C)C(/C=C/C=C/C=C/C=C2\N(CCCCS(=O)(=O)O)c3ccc4ccccc4c3C2(C)C)=[N+](CCCCS(=O)(=O)[O-])c2ccc3ccccc3c21 [indocyanine green],Cellular uptake in smHLCs,H1 smHLCs,ICG positive cells were clearly visible
Wnt3a,Expression of DE proteins FOXA2 and SOX17 by immunofluorescence,hESC line H1 [1],sufficient to produce populations of cells that expressed the DE markers FOXA2 and SOX17
